The source of these data is ChEMBL document CHEMBL6083202, “The isolation of sclerotinin A as an anti-malarial compound by utilization of a global secondary metabolism regulator, laeA gene” (Bioorg Med Chem Lett, 2024).

Values after ≈ are worked out from the molar mass of the structure shown. Active and inactive are the calls of the source. The rule behind the calls is not given here.

Data set [1] in a line: Cytotoxicity against human MRC5 cells. The data set is classed as toxicity, cell-based.
Data set [2] in a line: Selectivity index, ratio of IC50 for human MRC5 cells to IC50 for chloroquine-resistant Plasmodium falciparum K1. The data set is classed as toxicity, cell-based. The conditions noted are these: read-out: Ratio IC50.
Data set [3] in a line: Selectivity index, ratio of IC50 for human A549 cells to IC50 for chloroquine-sensitive Plasmodium falciparum FCR3. The data set is classed as toxicity, cell-based. The conditions noted are these: read-out: Ratio IC50.
A short description of data set [4]: Selectivity index, ratio of IC50 for human HepG2 cells to IC50 for chloroquine-resistant Plasmodium falciparum K1. The conditions noted are these: read-out: Ratio IC50. It counts as toxicity, cell-based.
In data set [5] the test system is Plasmodium falciparum. Kind of data set: Antimalarial activity against chloroquine-resistant Plasmodium falciparum K1. The data set is classed as functional, organism-based.
Data set [6] can be described thus: Selectivity index, ratio of IC50 for human MRC5 cells to IC50 for chloroquine-sensitive Plasmodium falciparum FCR3. The data set is classed as toxicity, cell-based. The conditions noted are these: read-out: Ratio IC50.
Data set [7] is described as follows: Selectivity index, ratio of IC50 for human A549 cells to IC50 for chloroquine-resistant Plasmodium falciparum K1. Particulars: read-out: Ratio IC50. It counts as toxicity, cell-based.
Data set [8] in a line: Selectivity index, ratio of IC50 for human HepG2 cells to IC50 for chloroquine-sensitive Plasmodium falciparum FCR3. The data set is classed as toxicity, cell-based. The conditions noted are these: read-out: Ratio IC50.
For the next data set, the system named is Saccharomyces cerevisiae. Kind of data set: Antifungal activity against multidrug sensitive Saccharomyces cerevisiae 12gene mutant 0HSR-iERG6 at 10 ug. It counts as functional, organism-based. Particulars: dose 10.0 µg.
Data set [9] is described as follows: Cytotoxicity against human A549 cells. The data set is classed as toxicity, cell-based.
Data set [10] can be described thus: Selectivity index, ratio of IC50 for human HeLa cells to IC50 for chloroquine-sensitive Plasmodium falciparum FCR3. Particulars: read-out: Ratio IC50. It counts as toxicity, cell-based.
Data set [11] is described as follows: Selectivity index, ratio of IC50 for human HeLa cells to IC50 for chloroquine-resistant Plasmodium falciparum K1. It counts as toxicity, cell-based. Particulars: read-out: Ratio IC50.
In data set [12] the test system is Plasmodium falciparum. Kind of data set: Antimalarial activity against chloroquine-sensitive Plasmodium falciparum FCR3. The data set is classed as functional, organism-based.
A short description of data set [13]: Cytotoxicity against human HepG2 cells. The data set is classed as toxicity, cell-based.
The nature of data set [14]: Cytotoxicity against human HeLa cells. The data set is classed as toxicity, cell-based.

For `Cc1c(O)c(C)c2c(c1O)C(=O)OC(C)(O)[C@H]2C` (stereo not given in full), the IC50 (in general, the concentration that gives 50% inhibition) in data set [1] is 1.2 µg/mL (≈ 4.76 µM); with Plasmodium falciparum [5], 0.87 µg/mL (≈ 3.45 µM); in data set [9] it was 15.9 µg/mL (≈ 63 µM); with Plasmodium falciparum [12], 0.62 µg/mL (≈ 2.46 µM); in [13], 3.91 µg/mL (≈ 15.5 µM); in data set [14] it was 9.88 µg/mL (≈ 39.2 µM). The selectivity ratio amounted to 1.4 in data set [2]; 25.6 in [3]; 4.49 in data set [4]; 2 in [6]; 18.3 in data set [7]; 6.31 in data set [8]. Moreover, the results for the selectivity ratio in data set [10] and in data set [11] were 15.9 and 11.4, respectively. For the same compound, the outcome in the data set on Saccharomyces cerevisiae was inactive.
